Peptide text beside a SMILES is read from it. * marks the point of attachment. Cbz = O=C(OCc1ccccc1)*
Tests used:
[1] = system: schwannoma-like cells from Lztr1fl/fl;Cdkn2Afl/fl;GFAP-Cre+ mice (E0954); experiment: Clonogenic assay of schwannoma-like cells; type: cell-based, mouse; details: single dose; 72 hr treatment; FIG. 15C-F
Protocol: 500 cells were seeded in triplicate wells of 6-well plates. […] Cells were stained with crystal violet and colonies were counted.

AXL [2] = experiment: Ubiquitylation assay of AXL in Hela cells; type: cell-based; details: chloroquine 100 μM, MG132 20 μM, FIG. 3F
Protocol: (§1) 293T and Hela cells were transfected with plasmid expressing EGFR-GFP, HA-Ub and LZTR1-FLAG as indicated in figures and treated with MLN4924 (1 μM), chloroquine (CQ, 100 μM), MG132 (20 μM), or EGF (20 ng/ml or 100 ng/ml) and ubiquitylation assay was performed under denaturing condition. Cells were lysed in 1% SDS and boiled at 100° C. for 10 min. Lysates were diluted with tris buffered saline containing 1% N P40 and centrifuged 14000 r.p.m. for 15 min at 4° C. Immunoprecipitation was performed using 500 μg to 1 mg of cellular lysates using HA affinity gel (Sigma, E6779), AXL or EGFR antibodies at 4° C. overnight followed by protein G/A beads for 90 min at 4° C. […] Protein samples were separated by SDS-PAGE and transferred to PV DF membrane and analyzed by western blot.

RIT1 = experiment: LZTR1-mediated reduction of RIT1 in transfected HEK 293T cells (western blot); type: cell-based; details: HEK 293T cells with FLAG-RIT1 and LZTR1-FLAG; FIG. 10A, 10C
Protocol: (§2) Cells were lysed in RIPA buffer (50 mM Tris-HCl, pH 7.5, 150 mM NaCl, 1 mM EDTA, 1% NP40, 0.5% sodium deoxycholate, 0.1% sodium dodecyl sulphate, 1.5 mM Na3VO4, 50 mM sodium fluoride, 10 mM sodium pyrophosphate, 10 mM β-glycerolphosphate and EDTA-free protease inhibitor cocktail (Roche)) or NP40 lysis buffer (50 mM Tris-HCl, pH 7.5, 150 mM NaCl, 1 mM EDTA, 1% NP40, 1.5 mM Na3VO4, 50 mM sodium fluoride, 10 mM sodium pyrophosphate, 10 mM β-glycerolphosphate and EDTA-free protease inhibitor cocktail (Roche)). Lysates were centrifuged 14,000 r.p.m. for 15 min at 4° C. and supernatant were collected. […] Beads were washed with lysis buffer four times and eluted in 2×SDS sample buffer. Immunoprecipitates or lysates were separated by SDS-PAGE and transferred to polyvinylidene difluoride or nitrocellulose membranes. Membranes were blocked in TBS-T (0.1% Tween20) with 5% non-fat milk or BSA and probed with primary antibodies.

AXL [3] = experiment: LZTR1-mediated destabilization of AXL in transfected HEK 293T cells (western blot); type: cell-based; details: HEK 293T cells with AXL-HA and LZTR1-FLAG; FIG. 3B, 3D
Protocol: as §2

EGFR [4] = experiment: LZTR1-mediated destabilization of EGFR in transfected HEK 293T cells (western blot); type: cell-based; details: HEK 293T cells with EGFR-GFP and LZTR1-FLAG; FIG. 3A, 3C
Protocol: as §2

EGFR [5] = experiment: Ubiquitylation assay of EGFR in HEK 293T cells; type: cell-based; details: MLN4924 1 μM, FIG. 3E
Protocol: as §1

[6] = system: subcutaneous tumors of schwannoma-like cells from Lztr1fl/fl;Cdkn2Afl/fl;GFAP-Cre+ mice (E0954); type: in vivo; details: single RTK inhibitor; summary in the discussion
Protocol: Mice were weighted daily. Tumor diameters were measured every 2 days with caliper and tumor volumes estimated using the formula: width2×length/2=V (mm3). Mice were euthanized when the tumor size reached 2,000 mm3 or if the skin was ulcerated, according to IACUC recommendation. All experiments were performed according to the guidelines of the Institutional Animal Care and Use Committee at Columbia University.

In the case of `C=CC(=O)Nc1cc(Nc2nccc(-c3cn(C)c4ccccc34)n2)c(OC)cc1N(C)CCN(C)C` [osimertinib], the clonogenicity [1] is reported as “ineffective”.

`CN(C)C/C=C/C(=O)Nc1cc2c(Nc3ccc(F)c(Cl)c3)ncnc2cc1O[C@H]1CCOC1` [afatinib] was tested, and the clonogenicity [1] was “ineffective”.

With `CC(C)C[C@@H](C=O)NC(=O)[C@H](CC(C)C)NC(=O)[C@H](CC(C)C)NC(=O)OCc1ccccc1` [MG132] (Cbz-Leu-Leu-Leu-aldehyde) the “LZTR1-increased polyubiquitylated species of AXL” value (AXL [2]) was “ineffective”.

For `CC(C)C[C@H](NC(=O)[C@H](Cc1ccccc1)NC(=O)c1cnccn1)B(O)O` [bortezomib], the “RIT1 reduction by LZTR1” value (RIT1) was “rescued”.

`NS(=O)(=O)OC[C@@H]1C[C@@H](n2ccc3c(N[C@H]4CCc5ccccc54)ncnc32)C[C@@H]1O` [MLN4924] was tested, and the “LZTR1-mediated destabilization of AXL” value (AXL [3]) was “rescued”, the “RIT1 reduction by LZTR1” value (RIT1) was “rescued” and the “LZTR1-mediated destabilization of EGFR” value (EGFR [4]) was “rescued”. The “LZTR1-increased formation of high molecular weight polyubiquitylated EGFR” value (EGFR [5]) was “abolished”.

`CO/C1=C\C(C)=C\[C@@H](C)[C@@H](O)[C@@H](C)C/C(C)=C/C=C/[C@H](OC)[C@@H]([C@@H](C)[C@@H](O)[C@H](C)[C@@]2(O)C[C@@H](O)[C@H](C)[C@@H](C(C)C)O2)OC1=O` [bafilomycin A1] was tested, and the “LZTR1-mediated destabilization of AXL” value (AXL [3]) was “relieved” and the “LZTR1-mediated destabilization of EGFR” value (EGFR [4]) was “relieved”.

In the case of `CCN(CC)CCCC(C)Nc1ccnc2cc(Cl)ccc12` (stereo not shown) [chloroquine], the “LZTR1-increased polyubiquitylated species of AXL” value (AXL [2]) is reported as “accumulated at much higher levels”.

With `Nc1nc(Nc2ccc3c(c2)CC[C@@H](N2CCCC2)CC3)nn1-c1cc2c(nn1)-c1ccccc1CCC2` [bemcentinib] the clonogenicity [1] was “ineffective” and the “therapeutic effect of single treatment” value [6] was “minimal”.
